Values of other authors in patent US20040220281A1, “Treatment of hormone-refractory prostate cancer” (priority 2003, published 2004).
Where two headings read alike, the source gives them in different places.

Assays:
[1] = in vivo
[2] = biological target: p-glycoprotein (P-gp) pump (Homo sapiens, UniProt P08183)
CYP 3A4 = CYP 3A4 (Homo sapiens, UniProt P08684)
[3] = in vitro

p-glycoprotein (P-gp) pump, sequence (P08183 whole entry): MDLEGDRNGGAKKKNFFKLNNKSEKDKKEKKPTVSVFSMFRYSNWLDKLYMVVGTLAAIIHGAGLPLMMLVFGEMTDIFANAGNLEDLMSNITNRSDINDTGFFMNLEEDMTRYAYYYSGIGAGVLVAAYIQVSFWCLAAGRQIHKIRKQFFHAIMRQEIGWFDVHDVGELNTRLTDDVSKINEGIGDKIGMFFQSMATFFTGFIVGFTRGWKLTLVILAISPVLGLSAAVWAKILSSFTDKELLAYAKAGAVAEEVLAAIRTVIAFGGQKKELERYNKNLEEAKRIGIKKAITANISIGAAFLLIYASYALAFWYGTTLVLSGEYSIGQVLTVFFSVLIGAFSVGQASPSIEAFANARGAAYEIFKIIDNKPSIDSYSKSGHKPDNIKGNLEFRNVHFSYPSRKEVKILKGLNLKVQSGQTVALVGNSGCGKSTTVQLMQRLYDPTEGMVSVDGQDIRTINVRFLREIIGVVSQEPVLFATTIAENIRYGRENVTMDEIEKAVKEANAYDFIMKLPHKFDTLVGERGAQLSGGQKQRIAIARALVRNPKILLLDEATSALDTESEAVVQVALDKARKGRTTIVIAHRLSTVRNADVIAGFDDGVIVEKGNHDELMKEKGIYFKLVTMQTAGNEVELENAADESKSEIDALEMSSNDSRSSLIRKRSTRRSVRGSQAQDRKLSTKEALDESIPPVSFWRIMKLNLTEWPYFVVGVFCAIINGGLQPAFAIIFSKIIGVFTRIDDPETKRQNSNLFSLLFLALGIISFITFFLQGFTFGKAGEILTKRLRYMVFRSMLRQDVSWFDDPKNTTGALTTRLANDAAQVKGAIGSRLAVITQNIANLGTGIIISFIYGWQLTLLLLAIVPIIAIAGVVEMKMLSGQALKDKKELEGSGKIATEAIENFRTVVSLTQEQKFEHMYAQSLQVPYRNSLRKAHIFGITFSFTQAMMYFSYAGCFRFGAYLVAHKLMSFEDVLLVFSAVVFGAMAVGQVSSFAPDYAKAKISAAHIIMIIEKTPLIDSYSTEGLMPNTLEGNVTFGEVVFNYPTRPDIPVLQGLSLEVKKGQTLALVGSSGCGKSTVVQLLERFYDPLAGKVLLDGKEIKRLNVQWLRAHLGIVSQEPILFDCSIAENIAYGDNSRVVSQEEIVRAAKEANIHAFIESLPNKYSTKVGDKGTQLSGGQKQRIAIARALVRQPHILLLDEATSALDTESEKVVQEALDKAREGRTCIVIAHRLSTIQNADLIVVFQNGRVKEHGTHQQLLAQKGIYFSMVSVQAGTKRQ
CYP 3A4, sequence (P08684 whole entry, species assumed): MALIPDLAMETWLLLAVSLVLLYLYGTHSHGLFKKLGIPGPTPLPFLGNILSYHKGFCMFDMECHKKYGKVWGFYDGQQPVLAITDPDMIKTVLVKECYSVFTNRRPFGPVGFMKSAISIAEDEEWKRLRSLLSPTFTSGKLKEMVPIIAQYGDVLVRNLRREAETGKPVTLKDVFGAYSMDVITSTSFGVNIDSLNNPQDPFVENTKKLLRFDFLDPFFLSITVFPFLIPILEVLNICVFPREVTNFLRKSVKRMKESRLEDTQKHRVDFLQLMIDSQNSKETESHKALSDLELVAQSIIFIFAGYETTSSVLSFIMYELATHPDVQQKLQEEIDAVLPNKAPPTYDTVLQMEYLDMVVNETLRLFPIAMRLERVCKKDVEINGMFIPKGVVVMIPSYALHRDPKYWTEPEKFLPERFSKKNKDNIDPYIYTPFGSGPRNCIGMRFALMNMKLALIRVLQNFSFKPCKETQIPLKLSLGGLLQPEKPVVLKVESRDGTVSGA

CCN(CC)CCOc1ccc(Cc2ccccc2)cc1 [DPPE, N,N-diethyl-2-[4-(phenylmethyl)-phenoxy]ethanamine]
potentiation of cytotoxicity of a variety of antineoplastic drugs [1]: potentiates the cytotoxicity | inhibition of the p-glycoprotein (P-gp) pump [2]: inhibits | substrate for CYP 3A4 (CYP 3A4): potent substrate | potentiation of cytotoxicity of a variety of antineoplastic drugs [3]: potentiates the cytotoxicity
